These results are taken from patent publication US10617557B2, “Combined drug delivery methods and apparatus” (ForSight Vision4, Inc., priority 2010, dated 2020).

In brackets after ≈: the same amount, converted by molar mass. Like-named read-outs stand apart in the source and are kept apart here.

The conditions of data set [1]: cited from earlier work.
The conditions of data set [2]: human eye; listed as ranibizumab; cited from earlier work.
A short description of data set [3]: Diffusion coefficients of proteins and small molecules. To be noted: simulation parameter, Tables 4A and 4E. In kind it is physicochemical. The text has this:
If the reservoir solution is aqueous or has a viscosity similar to water, the value for the diffusion coefficient of the therapeutic agent (TA) in water at the temperature of interest may be used.
Small molecules have a diffusion coefficient similar to fluorescein (MW=330, D=4.8 to 6 e-6 cm^2/s from Stay, M S et al. Pharm Res 2003, 20(1), pp. 96-102). For example, the small molecule may comprise a glucocorticoid such as triamcinolone acetonide having a molecular weight of about 435.

The test system of data set [4] is Grade IV choroidal neovascularization (CNV) lesions. Conditions: intravitreal injection, all doses tested, cynomolgus monkeys; cited from earlier work.
The conditions of data set [5]: rabbit and monkey, cited from earlier work.
In data set [6] the test system is VEGF-induced cell proliferation, or receptor binding. To be noted: depending on the target assay; cited from earlier work.
In data set [7] the test system is COX. To be noted: cited from earlier work.
Data set [8] is described as follows: Calculated release of COX inhibitors from the therapeutic device into the vitreous. The arrangement: species or system human. To be noted: from half-life 3 hr.
The conditions of data set [9]: representative of a small molecule, input of the calculation; cited from earlier work.
For data set [10] the following is noted: vitreous, input of the calculation; cited from earlier work.

The term IC50 denotes the midpoint of a concentration-inhibition curve.

As for `Cc1ccc(-c2cc(C(F)(F)F)nn2-c2ccc(S(N)(=O)=O)cc2)cc1` [celecoxib], the Solubility in water entry in data set [1] is “approximately 3 ug/ml”.

On to ranibizumab [Lucentis™], for which the “Half-life in the vitreous” value is 220 h in data set [2], “two to four” in [5] and “approximately 3 days” in [5] (listed as ranibizumab). The same compound displayed a Diffusion coeff in data set [3] of 1.0E−06 cm2/s. Also, in [4], the “Development of Grade IV CNV lesions” value is “completely inhibited”.

Regarding `C[C@]12C=CC(=O)C=C1CC[C@H]1[C@@H]3C[C@@H](O)[C@](O)(C(=O)CO)[C@@]3(C)C[C@H](O)[C@@]12F` [triamcinolone], the IC50 in [6] is roughly 1.5 nM.

Take `Nc1c(CC(=O)O)cccc1C(=O)c1ccc(Br)cc1` [bromfenac]: the “IC50 (ug/ml) (Inhibitory Level)*” value in [7] was 0.0025 µg/mL (≈ 0.00748 µM).

Turning to `O=C(c1ccccc1)c1ccc2n1CCC2C(=O)O` (stereo not drawn) [ketorolac], the “Rate constant, k” value in data set [8] was 5.545 day⁻¹. In data set [9], the Diffusion coeff is on record as 5.0E−06 cm2/s. For the same compound, the “Half-life” value in data set [10] was 3 h. Moreover, in data set [7], the “IC50 (ug/ml) (Inhibitory Level)*” value was 0.007 µg/mL (≈ 0.0274 µM).
